Measurements from BindingDB's records for doi:10.1016/j.bmcl.2017.04.009 (Vanderbilt University School of Medicine, 2017).

Target: T1, Muscarinic acetylcholine receptor M4 (Homo sapiens, UniProt P08173)
T1 sequence (P08173 whole entry): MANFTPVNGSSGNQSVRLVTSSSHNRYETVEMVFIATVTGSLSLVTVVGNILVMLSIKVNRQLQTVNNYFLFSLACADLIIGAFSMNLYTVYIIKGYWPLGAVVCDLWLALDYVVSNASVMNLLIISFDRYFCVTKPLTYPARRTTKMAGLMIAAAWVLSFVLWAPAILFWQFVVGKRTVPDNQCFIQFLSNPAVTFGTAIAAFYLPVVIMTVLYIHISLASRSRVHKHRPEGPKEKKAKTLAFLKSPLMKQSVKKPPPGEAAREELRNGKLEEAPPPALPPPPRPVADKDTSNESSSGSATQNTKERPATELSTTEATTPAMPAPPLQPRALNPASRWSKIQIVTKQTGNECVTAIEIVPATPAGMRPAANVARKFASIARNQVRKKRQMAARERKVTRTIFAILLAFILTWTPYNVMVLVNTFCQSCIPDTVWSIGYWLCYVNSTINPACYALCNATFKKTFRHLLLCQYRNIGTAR
Test: Antagonist activity at recombinant human M4 receptor expressed in CHO cells co-expressing Gqi5 by calcium mobilization assay

`O=C(C1CCN(c2cc(Oc3ccc(Cl)cc3F)ncn2)CC1)N1CCc2ccccc2C1` gave an IC50 of 0.117 µM.
